Results on 6 compounds are retold here after BindingDB's records for patent US20250122174 (Shenzhen Yuanli Shenwan Innovative Medicine, 2025).

A value given as a limit tells only on which side of the number the result lay.

The IC50 is the concentration that inhibits the measured activity by half. A high value points to a need for much substance.

Chain of Mitogen-activated protein kinase kinase kinase kinase 1 (Q92918 whole entry): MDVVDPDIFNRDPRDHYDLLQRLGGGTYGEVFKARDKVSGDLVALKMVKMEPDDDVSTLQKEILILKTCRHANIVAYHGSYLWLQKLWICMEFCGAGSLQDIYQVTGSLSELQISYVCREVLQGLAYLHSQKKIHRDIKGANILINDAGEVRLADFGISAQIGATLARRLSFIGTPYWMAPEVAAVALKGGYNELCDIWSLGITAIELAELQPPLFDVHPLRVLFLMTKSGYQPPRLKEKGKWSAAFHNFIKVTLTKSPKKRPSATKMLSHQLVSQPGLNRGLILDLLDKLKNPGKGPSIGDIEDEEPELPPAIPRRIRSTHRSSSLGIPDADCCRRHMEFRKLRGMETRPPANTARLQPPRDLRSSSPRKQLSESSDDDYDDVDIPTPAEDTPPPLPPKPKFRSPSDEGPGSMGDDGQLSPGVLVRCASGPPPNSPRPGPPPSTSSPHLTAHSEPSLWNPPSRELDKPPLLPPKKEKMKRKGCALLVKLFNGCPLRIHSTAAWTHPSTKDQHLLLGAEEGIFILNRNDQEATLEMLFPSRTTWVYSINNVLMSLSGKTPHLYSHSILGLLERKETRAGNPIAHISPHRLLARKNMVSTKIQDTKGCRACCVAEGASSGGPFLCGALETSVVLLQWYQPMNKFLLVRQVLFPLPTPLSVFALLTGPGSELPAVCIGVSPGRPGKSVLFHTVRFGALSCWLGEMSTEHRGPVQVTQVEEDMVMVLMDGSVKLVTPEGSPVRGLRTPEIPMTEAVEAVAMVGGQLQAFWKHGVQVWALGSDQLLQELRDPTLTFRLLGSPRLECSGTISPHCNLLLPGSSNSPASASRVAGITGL

This assay addresses Mitogen-activated protein kinase kinase kinase kinase 1 (Homo sapiens, UniProt Q92918). The assay is described as follows: HPK1 Inhibition Assay. As for the experimental part:
A stock solution of 10 mM test compound was prepared in DMSO. The compound was prepared by 5-fold and 10-point serial dilutions with HPK1 kinase assay buffer. The HPK1 kinase assay buffer contained 40 mM Tris, pH 7.5; 20 mM MgCl2, 0.1 mg/ml BSA, and 50 μM DTT. 7.5 ng/μl of Active HPK1 (Promega, V4098) and 0.1 μg/ml MBP substrate protein were added to the reaction system. The final concentration of ATP in the HPK1 kinase reaction system was 10 μM. Serial diluted compounds were transferred to the reaction system and incubated at room temperature for 1 hr. 5 μL of ADP-Glo™ Reagent (Promega, V9101) was added and incubated for 40 min to stop the kinase reaction and deplete the unconsumed ATP. […] The luminescence was measured with a plate-reading luminometer.
`CC(C)c1nc2c(N3CC[C@H]4NCC[C@H]43)c(NC(=O)c3ccc(=O)n(-c4c(F)cccc4F)n3)ccc2n1C` [US20250122174, Example 135]: the IC50 is less than 100 nM.

The compound `Cc1nc2c(N3CCNC(=O)C3)c(NC(=O)c3ccc(=O)n(-c4c(F)cccc4F)n3)ccc2n1C` [US20250122174, Example 83] came in with an IC50 of less than 100 nM.

Take `Cc1nc2c(N3CC[C@@H](N)C3)c(NC(=O)c3ccc(=O)n(-c4c(Cl)cccc4Cl)n3)ccc2n1C` [US20250122174, Example 108]: the IC50 was less than 100 nM.

In turn, `Cn1c(-c2ccncc2F)nc2c(N3CCC[C@H]3CN)c(NC(=O)c3ccnn(-c4c(F)cccc4F)c3=O)ccc21` [US20250122174, Example 43] came in with a half-inhibitory concentration (IC50) of less than 100 nM.

On to `Cc1nc2c(N3C[C@@H]4C[C@H]3CN4)c(NC(=O)c3ccc(=O)n(-c4c(F)cccc4F)n3)ccc2n1C` [US20250122174, Example 75], for which the concentration for half-maximal inhibition (IC50) was less than 100 nM.

For `CC(C)n1ncc2c(N3CCC(N)CC3)c(NC(=O)c3ccc(=O)n(-c4c(F)cccc4F)n3)ccc21` [US20250122174, Example 184], the concentration for half-maximal inhibition (IC50) is less than 100 nM.
